Results: patent publication US20230109839A1, “THERAPEUTIC AGENT FOR TAUOPATHIES” (SUMITOMO PHARMA CO., LTD., priority 2020, published 2023)
“Also recorded” adds a separate entry of the source.

Assays:
[1] = tested on: APP-Tg mouse; experiment: Evaluation of the cognitive function by novel object recognition test (NORT) in APP-Tg mice (Test 3); assay type: in vivo; design: key to Discrimination index: (novel − known search time)/(novel + known search time); conditions: for improvement of cognitive function (NORT), summary of the above results / improvement of cognitive function (NORT): APP-Tg mice; for improvement of cognitive function (NORT), summary of the above results: alone, with Elacridar or with ABT depending on the compound
Procedure: Test 3: Evaluation of the Cognitive Function by Novel Object Recognition Test (Hereinafter, Also Referred to as “NORT”)
The present test is for evaluating the improvement of cognitive function with the test compounds. When an APP-Tg mouse which is an AD (Alzheimer's disease) model mouse is evaluated by NORT, the memory for a familiar object decreases depending on the time interval between the first trial run (training) and the second trial run (test). For example, if the first trial run is done and 3 hours later the second one is done, there is no difference in the searching times between novel object and known object for the APP-Tg mouse, compared with a healthy mouse. Thus, the APP-Tg mouse suffers from significant amnesia.
The APP-Tg mouse used herein was prepared by constructing an expression cassette linked to human APP751 isoform to which Swedish (K670N/M671L) and Indiana (V717F) mutation were introduced at downstream of mouse Thy-1 promoter, then injecting the expression cassette into a mouse fertilized egg, and transplanting it to a host mouse. The prepared mouse presents with intracerebral AB accumulation and cognitive dysfunction from early on, and thus the mouse can be used for the evaluation of cognitive function. APP-Tg mouse has been also reported in Non-patent literature 6.
To the prepared APP-Tg mouse, the test compound was administered, and then the first trial run was done for the mouse 30 minutes after the intraperitoneal administration or after 10 days of mixed diet administration. The second trial run was done 3 hours after the first trial run, and the searching times between novel object and known object in the second trial were evaluated. The discrimination index was calculated from the searching time for novel object and known object in the second trial run, and the improvement of cognitive function of the test compound was confirmed by comparing the discrimination index with the test compound-unadministered group as an index of the cognitive function. The discrimination index was calculated by the following formula.
Discrimination index={(Searching time for novel object)−(Searching time for known object)}/{(Searching time for novel object)+(Searching time for known object)}
The present test can be also done with a combination with Elacridar (Tokyo Chemical Industry Co., Ltd.). Elacridar can inhibit P-gp and BCRP which are excretion transporters expressed in the blood-brain barrier and thereby Elacridar has the effect of improving the transferability of the test compound to the brain. Eracridal was orally administered to APP-Tg mice at 100 mg/kg 2 hours before the first trial run, and then the test compound was intraperitoneally administered to the mice 30 minutes before the first trial run according to the above method. And, the improvement of cognitive function was evaluated. The significant difference from the vehicle-administered group was determined using the parametric Dunnett multiple comparison test.
And, the present test can be also done with a combination with ABT (1-aminobenzotriazole) (Tokyo Chemical Industry Co., Ltd.). ABT has the effect of improving the blood concentration of the test compound by inhibiting CYP and suppressing metabolism. The test compound and ABT (1 mg/g-food) were administered with food to APP-Tg mice for 10 days, and then the improvement of cognitive function was evaluated according to the above method. The significant difference from the vehicle-administered group was determined using the parametric Dunnett multiple comparison test.

[2] = tested on: phosphorylated tau oligomer; experiment: Evaluation of phosphorylated tau oligomers in brain of APP-Tg mice, Western blotting (Test 4); assay type: in vivo, mouse; conditions: for reducing effect of tau oligomer: with food for 7-10 days, ABT 1 mg/g-food depending on the compound, brain, anti-oligomerized tau antibody TOMA-1

Question: With CC1CCN(c2ccc(=O)n(CC(=O)Nc3ccc(C#N)cc3)n2)CC1 [Example 1, N-(4-Cyanophenyl)-2-[3-(4-methylpiperidin-1-yl)-6-oxopyridazin-1(6H)-yl]acetamide] as the compound, how does the “improvement of cognitive function (NORT), summary of the above results” value [1] read?
Answer: some improvement of cognitive function

Question: What about the Discrimination index ([1]; APP-Tg mouse, 30 minutes before first trial run) of the same compound?
Answer: 0.25

Question: And the Discrimination index ([1]; APP-Tg mouse, dose 3 (mg/g i.p.), 30 minutes before first trial run)?
Answer: 0.12

Question: And the Discrimination index ([1]; APP-Tg mouse, dose 10 (mg/g i.p.), 30 minutes before first trial run)?
Answer: 0.22

Question: What about the “improvement of cognitive function, significant difference from the vehicle-administered group” value ([1]; APP-Tg mouse, intraperitoneal doses of 10 and 30 mg/kg, parametric Dunnett multiple comparison test) of the same compound?
Answer: statistically significant

Question: What about the “improvement of cognitive function (NORT, discrimination index)” value ([1]; APP-Tg mouse, intraperitoneally 3, 10 and 30 mg/kg 30 minutes before the first trial run) of the same compound?
Answer: dose-dependent improvement of cognitive function

Question: What about the “Reducing effect of phosphorylated tau oligomer” value ([2]; dose 1.9 mg/g-food, 7-10 days, without ABT) of the same compound?
Answer: + + +

Question: And the “Reducing effect of phosphorylated tau oligomer” value ([2]; dose 5.8 mg/g-food, 7-10 days, without ABT)?
Answer: + + + +

Question: What about the “reducing effect of tau oligomer” value [2] of the same compound?
Answer: some reducing effect of tau oligomer; also recorded: strong reducing effect of tau oligomer

Question: Which results are given for CC1CC=C(c2cnc3cnn(CC(=O)Nc4ccn5ncnc5c4)c3n2)CC1 (centres unmarked) [Example 577, 2-[6-(4-methylcyclohex-1-en-1-yl)-1H-pyrazolo[3,4-b]pyrazin-1-yl]-N-([1,2,4]triazolo[1,5-a]pyridin-7-yl)acetamide]?
Answer: improvement of cognitive function (NORT) ([1]; Elacridar orally 100 mg/kg 2 hours before, test compound intraperitoneally 30 minutes before the first trial run, 100 mg/kg): some improvement of cognitive function; also recorded: strong improvement of cognitive function; improvement of cognitive function (NORT), summary of the above results [1]: some improvement of cognitive function; Discrimination index ([1]; APP-Tg mouse, dose 10 (mg/g i.p.), with Elacridar 100 mg/kg orally 2 hours before first trial run): 0.13; Discrimination index ([1]; APP-Tg mouse, with Elacridar 100 mg/kg orally 2 hours before first trial run): 0.21; inhibition in vivo at 2.2 mg/g-food ([2]; Mus musculus, po, dose 2.2 mg/g-food, 7-10 days, without ABT, read-out: Reducing effect of phosphorylated tau oligomer): 0 to 25%; inhibition in vivo at 6.6 mg/g-food ([2]; Mus musculus, po, dose 6.6 mg/g-food, 7-10 days, without ABT, read-out: Reducing effect of phosphorylated tau oligomer): 50 to 75%; reducing effect of tau oligomer [2]: some reducing effect of tau oligomer; also recorded: strong reducing effect of tau oligomer

Question: What does the source list for CN(c1ncc2cnn(CC(=O)Nc3ccn4ncnc4c3)c2n1)C1CCCC1 [Example 795, 2-{6-[cyclopentyl(methyl)amino]-1H-pyrazolo[3,4-d]pyrimidin-1-yl}-N-([1,2,4]triazolo[1,5-a]pyridin-7-yl)acetamide]?
Answer: improvement of cognitive function (NORT), summary of the above results [1]: some improvement of cognitive function; improvement of cognitive function (NORT) ([1]; test compound and ABT (1 mg/g-food) administered with food for 10 days): some improvement of cognitive function; Discrimination index ([1]; APP-Tg mouse, dose 0.2 mg/g-food for 10 days, with ABT 1 mg/g-food): 0.30; Discrimination index ([1]; APP-Tg mouse, dose 2 mg/g-food for 10 days, with ABT 1 mg/g-food): 0.27; Reducing effect of phosphorylated tau oligomer ([2]; dose 0.2 mg/g-food, 7-10 days, with ABT 1 mg/g-food): + (0-25%: +); Reducing effect of phosphorylated tau oligomer ([2]; dose 2 mg/g-food, 7-10 days, with ABT 1 mg/g-food): +++ (50-75%: +++); reducing effect of tau oligomer [2]: some reducing effect of tau oligomer; also recorded: strong reducing effect of tau oligomer
